# Read-outs that look alike come from different tables or passages of the source.
# Experiments:
# Assay type in all cases: in vivo
# [1] = system: wheat (Triticum aestivum); experiment: Test A pre-/postemergence: wheat; conditions: for plant injury at 125 g/ha / plant injury at 500 g/ha: Triticum aestivum, 240 h
# In short: (§1)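 Seeds were sown in loam/sand blend and sprayed preemergence (directed soil spray) and, simultaneously, postemergence at 2–10 cm, one- to two-leaf stage, using compounds in non-phytotoxic solvent with surfactant. After ~10 days in greenhouse, injury was rated visually versus untreated controls, 0 (no effect) to 100 (complete control).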
# [2] = system: lambsquarters (Chenopodium album); experiment: Test C pre-/postemergence: lambsquarters
# In short: (§2)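 Preemergence on seeds in loam/sand, postemergence on 2–18 cm (1–4-leaf) plants in peat-based medium; compounds in non-phytotoxic solvent with surfactant. After 13–15 days in greenhouse, visual rating versus controls, 0 (no effect) to 100 (complete control).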
# [3] = system: barnyardgrass (Echinochloa crus-galli); experiment: Test B flooded paddy: barnyardgrass; conditions: Flood, applied to paddy water at 2-leaf stage, visually evaluated after 13 to 15 days
# In short: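 Plants were grown to the 2-leaf stage, then pots were flooded to 3 cm above the soil and compounds were applied directly into the paddy water. Water depth was held for the whole test; after 13 to 15 days in a greenhouse, injury was visually rated against untreated controls (0 = no effect, 100 = complete control).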
# [4] = system: foxtail, giant (giant foxtail, Setaria faberii); experiment: Test C pre-/postemergence: foxtail, giant
# In short: as §2
# [5] = system: corn (Zea mays); experiment: Test C pre-/postemergence: corn
# In short: as §2
# [6] = system: ryegrass, Italian (Italian ryegrass, Lolium multiflorum); experiment: Test C pre-/postemergence: ryegrass, Italian
# In short: as §2
# [7] = system: large crabgrass (Digitaria sanguinalis); experiment: Test C pre-/postemergence: large crabgrass
# In short: as §2
# [8] = system: pigweed (Amaranthus retroflexus); experiment: Test A pre-/postemergence: pigweed; conditions: for pest or weed control at 125 g/ha / pest or weed control at 500 g/ha: Amaranthus retroflexus, 240 h
# In short: as §1
# [9] = system: morningglory (Ipomoea coccinea); experiment: Test C pre-/postemergence: morningglory
# In short: as §2
# [10] = system: galium (catchweed bedstraw, Galium aparine); experiment: Test C pre-/postemergence: galium
# In short: as §2
# [11] = Postemergence, 31 g ai/ha, scale 0 to 100 (0 no effect, 100 complete control)
# [12] = Postemergence, 62 g ai/ha, scale 0 to 100 (0 no effect, 100 complete control)
# [13] = Postemergence, 125 g ai/ha, scale 0 to 100, 0 no effect, 100 complete control
# [14] = Postemergence, 250 g ai/ha, scale 0 to 100
# [15] = Preemergence, 31 g ai/ha, scale 0 (no effect) to 100 (complete control)
# [16] = Preemergence, 62 g ai/ha, scale of 0 to 100, 0 is no effect, 100 is complete control
# [17] = Preemergence, 125 g ai/ha, scale 0 to 100, 0 no effect, 100 complete control
# [18] = Preemergence, 250 g ai/ha, scale 0 to 100, 0 no effect, 100 complete control
# [19] = Postemergence, 125 g ai/ha, 0 to 100 scale, 0 is no effect, 100 is complete control
# [20] = Postemergence, 500 g ai/ha, 0 to 100 scale, 0 is no effect, 100 is complete control
# [21] = Preemergence, 125 g ai/ha, 0 to 100 scale where 0 is no effect and 100 is complete control
# [22] = Preemergence, 500 g ai/ha, 0 to 100 scale (0 no effect, 100 complete control)
# [23] = Postemergence, 250 g ai/ha, scale 0 to 100 (0 no effect, 100 complete control)
structure (smiles),measurement,setting,value
"CCOc1nn(-c2ccc(C(F)(F)F)cc2)nc1Cc1ccnc(C(F)(F)F)c1 [Compound 164, 4-[[5-ethoxy-2-[4-(trifluoromethyl)phenyl]-2H-1,2,3-triazol-4-yl]methyl]-2-(trifluoromethyl)pyridine]",plant injury at 125 g/ha,"[1]; post-emergence, Postemergence, 125 g ai/ha, 0 to 100 scale, 0 is no effect, 100 is complete control, read-out: Plant response rating, Wheat",50%
same,plant injury at 500 g/ha,"[1]; post-emergence, Postemergence, 500 g ai/ha, 0 to 100 scale, 0 is no effect, 100 is complete control, read-out: Wheat plant response rating",60%
same,plant injury at 125 g/ha,"[1]; pre-emergence, Preemergence, 125 g ai/ha, 0 to 100 scale where 0 is no effect and 100 is complete control, read-out: Plant response rating, Wheat",50%
same,plant injury at 500 g/ha,"[1]; pre-emergence, Preemergence, 500 g ai/ha, 0 to 100 scale (0 no effect, 100 complete control), read-out: Plant response rating, Wheat",60%
same,"Plant response rating, Lambsquarters",[2]; [11],50
same,"Plant response rating, Lambsquarters",[2]; [12],55
same,"Plant response rating, Lambsquarters",[2]; [13],60
same,"Plant response rating, Lambsquarters",[2]; [14],70
same,"Plant response rating, Lambsquarters",[2]; [15],85
same,"Plant response rating, Lambsquarters",[2]; [16],85
same,"Plant response rating, Lambsquarters",[2]; [17],95
same,"Plant response rating, Lambsquarters",[2]; [18],95
same,"Plant response rating, Barnyardgrass (0 to 100 scale, 0 is no effect, 100 is complete control)",[3]; 125 g ai/ha,60
same,"Plant response rating, Foxtail, Giant",[4]; [11],10
same,"Plant response rating, Foxtail, Giant",[4]; [12],20
same,"Plant response rating, Foxtail, Giant",[4]; [13],20
same,"Plant response rating, Foxtail, Giant",[4]; [14],35
same,"Plant response rating, Foxtail, Giant",[4]; [15],50
same,"Plant response rating, Foxtail, Giant",[4]; [16],65
same,"Plant response rating, Foxtail, Giant",[4]; [17],98
same,"Plant response rating, Foxtail, Giant",[4]; [18],100
same,"Plant response rating, Corn",[5]; [11],15
same,"Plant response rating, Corn",[5]; [12],15
same,"Plant response rating, Corn",[5]; [13],20
same,"Plant response rating, Corn",[5]; [14],20
same,"Plant response rating, Corn",[5]; [15],0
same,"Plant response rating, Corn",[5]; [16],5
same,"Plant response rating, Corn",[5]; [17],10
same,"Plant response rating, Corn",[5]; [18],10
same,"Plant response rating, Ryegrass, Italian",[6]; [11],5
same,"Plant response rating, Ryegrass, Italian",[6]; [12],5
same,"Plant response rating, Ryegrass, Italian",[6]; [13],5
same,"Plant response rating, Ryegrass, Italian",[6]; [14],5
same,"Plant response rating, Ryegrass, Italian",[6]; [15],5
same,"Plant response rating, Ryegrass, Italian",[6]; [16],10
same,"Plant response rating, Ryegrass, Italian",[6]; [17],55
same,"Plant response rating, Ryegrass, Italian",[6]; [18],75
same,"Plant response rating, Crabgrass, Large",[7]; [11],5
same,"Plant response rating, Crabgrass, Large",[7]; [12],5
same,"Plant response rating, Crabgrass, Large",[7]; [13],10
same,"Plant response rating, Crabgrass, Large",[7]; [14],10
same,"Plant response rating, Crabgrass, Large",[7]; [15],70
same,"Plant response rating, Crabgrass, Large",[7]; [16],75
same,"Plant response rating, Crabgrass, Large",[7]; [17],98
same,"Plant response rating, Crabgrass, Large",[7]; [18],100
same,pest or weed control at 125 g/ha,"[8]; post-emergence, Postemergence, 125 g ai/ha, 0 to 100 scale, 0 is no effect, 100 is complete control, read-out: Plant response rating, Pigweed",100%
same,pest or weed control at 500 g/ha,"[8]; post-emergence, Postemergence, 500 g ai/ha, 0 to 100 scale, 0 is no effect, 100 is complete control, read-out: Pigweed plant response rating",100%
same,pest or weed control at 125 g/ha,"[8]; pre-emergence, Preemergence, 125 g ai/ha, 0 to 100 scale where 0 is no effect and 100 is complete control, read-out: Plant response rating, Pigweed",100%
same,pest or weed control at 500 g/ha,"[8]; pre-emergence, Preemergence, 500 g ai/ha, 0 to 100 scale (0 no effect, 100 complete control), read-out: Plant response rating, Pigweed",100%
same,"Plant response rating, Morningglory",[9]; [11],50
same,"Plant response rating, Morningglory",[9]; [12],60
same,"Plant response rating, Morningglory",[9]; [14],75
same,"Plant response rating, Morningglory",[9]; [15],5
same,"Plant response rating, Morningglory",[9]; [16],15
same,"Plant response rating, Morningglory",[9]; [17],25
same,"Plant response rating, Morningglory",[9]; [18],45
same,"Plant response rating, Galium",[10]; [11],30
same,"Plant response rating, Galium",[10]; [12],30
same,"Plant response rating, Galium",[10]; [13],60
same,"Plant response rating, Galium",[10]; [14],60
same,"Plant response rating, Galium",[10]; [15],0
same,"Plant response rating, Galium",[10]; [16],50
same,"Plant response rating, Galium",[10]; [17],80
same,"Plant response rating, Galium",[10]; [18],80
CCCc1nn(-c2ccc(F)cc2)nc1Oc1ccnc(C(F)(F)F)c1 [Compound 168],"Plant response rating, Wheat",[1]; [19],40
same,Wheat plant response rating,[1]; [20],50
same,"Plant response rating, Wheat",[1]; [21],40
same,"Plant response rating, Wheat",[1]; [22],60
same,"Plant response rating, Lambsquarters",[2]; [11],80
same,"Plant response rating, Lambsquarters",[2]; [12],95
same,"Plant response rating, Lambsquarters",[2]; [13],95
same,"Plant response rating, Lambsquarters",[2]; [23],95
same,"Plant response rating, Lambsquarters",[2]; [15],98
same,"Plant response rating, Lambsquarters",[2]; [16],98
same,"Plant response rating, Lambsquarters",[2]; [17],98
same,"Plant response rating, Lambsquarters",[2]; [18],98
same,"Plant response rating, Barnyardgrass (0 to 100 scale, 0 is no effect, 100 is complete control)",[3]; 250 g ai/ha,80
same,"Plant response rating, Foxtail, Giant",[4]; [11],55
same,"Plant response rating, Foxtail, Giant",[4]; [12],65
same,"Plant response rating, Foxtail, Giant",[4]; [13],95
same,"Plant response rating, Foxtail, Giant",[4]; [14],95
same,"Plant response rating, Foxtail, Giant",[4]; [15],100
same,"Plant response rating, Foxtail, Giant",[4]; [16],100
same,"Plant response rating, Foxtail, Giant",[4]; [17],100
same,"Plant response rating, Foxtail, Giant",[4]; [18],100
same,"Plant response rating, Corn",[5]; [11],15
same,"Plant response rating, Corn",[5]; [12],15
same,"Plant response rating, Corn",[5]; [13],30
same,"Plant response rating, Corn",[5]; [14],45
same,"Plant response rating, Corn",[5]; [15],5
same,"Plant response rating, Corn",[5]; [16],15
same,"Plant response rating, Corn",[5]; [17],25
same,"Plant response rating, Corn",[5]; [18],55
same,"Plant response rating, Ryegrass, Italian",[6]; [11],10
same,"Plant response rating, Ryegrass, Italian",[6]; [12],35
same,"Plant response rating, Ryegrass, Italian",[6]; [13],60
same,"Plant response rating, Ryegrass, Italian",[6]; [23],80
same,"Plant response rating, Ryegrass, Italian",[6]; [15],70
same,"Plant response rating, Ryegrass, Italian",[6]; [16],98
same,"Plant response rating, Ryegrass, Italian",[6]; [17],100
same,"Plant response rating, Ryegrass, Italian",[6]; [18],100
same,"Plant response rating, Crabgrass, Large",[7]; [11],30
same,"Plant response rating, Crabgrass, Large",[7]; [12],65
same,"Plant response rating, Crabgrass, Large",[7]; [13],95
same,"Plant response rating, Crabgrass, Large",[7]; [14],95
same,"Plant response rating, Crabgrass, Large",[7]; [15],100
same,"Plant response rating, Crabgrass, Large",[7]; [16],100
same,"Plant response rating, Crabgrass, Large",[7]; [17],100
same,"Plant response rating, Crabgrass, Large",[7]; [18],100
same,"Plant response rating, Pigweed",[8]; [19],100
same,Pigweed plant response rating,[8]; [20],100
same,"Plant response rating, Pigweed",[8]; [21],100
same,"Plant response rating, Pigweed",[8]; [22],100
same,"Plant response rating, Morningglory",[9]; [11],50
same,"Plant response rating, Morningglory",[9]; [12],80
same,"Plant response rating, Morningglory",[9]; [13],90
same,"Plant response rating, Morningglory",[9]; [23],90
same,"Plant response rating, Morningglory",[9]; [15],45
same,"Plant response rating, Morningglory",[9]; [16],55
same,"Plant response rating, Morningglory",[9]; [17],55
same,"Plant response rating, Morningglory",[9]; [18],80
same,"Plant response rating, Galium",[10]; [11],90
same,"Plant response rating, Galium",[10]; [12],90
same,"Plant response rating, Galium",[10]; [13],90
same,"Plant response rating, Galium",[10]; [23],95
same,"Plant response rating, Galium",[10]; [15],85
same,"Plant response rating, Galium",[10]; [16],100
same,"Plant response rating, Galium",[10]; [17],100
same,"Plant response rating, Galium",[10]; [18],100

# — US9302999B2, “Substituted triazoles as herbicides” (E. I. DU PONT DE NEMOURS AND COMPANY, priority 2012, dated 2016)
